# Laboratory results as given in patent publication US20210187085A1, “PHOSPHOLIPASE A2 RECEPTOR ANTIGENS AND THEIR MEDICAL USE” (The University of Manchester, priority 2017, published 2021).
# Entries after “also recorded” stand apart in the source; their conditions may differ. Where a SMILES comes first, the peptide text is derived from it. Bridges are numbered along the chain shown (N, C = ends). Where no end group is shown, it is not given here.
# Assays:
# anti-PLA2R mouse 20 Ab [1] = assay: ProteOn SPR, candidate peptide mouse 20 antibody binding kinetics; settings: peptide immobilised on GLC chip, mouse 20 Ab 5-25 nM; for Ka: Langmuir 1:1
# anti-PLA2R mouse 20 Ab [2] = assay: Slot blot analysis with mouse 20 Ab; assay type: binding; settings: for interaction with mouse 20 Ab in slot blot: 205 nm NanoDrop and ponceau S staining
# From the text: Incorporating the 205 nm NanoDrop and ponceau S staining the assessment of the peptide epitope library was undertaken with the mouse 20 Ab.
# mouse 20 Ab = assay: ELISA analysis of peptide epitope library; assay type: binding; settings: 1.5 ng of peptide immobilised, absorbance 450 nm
# [3] = system: human Nottingham patient autoAb; assay: PEPperCHIP peptide microarray substitution scan, phase 1; assay type: binding; settings: Nottingham patient autoAbs
# anti-PLA2R Mouse 20 Ab [4] = assay: Ka 1/Ms
# anti-PLA2R Mouse 20 Ab [5] = assay: Kd 1/s
# human anti-PLA2R autoAbs = assay: Slot blot analysis with human anti-PLA2R autoAbs; settings: non-reducing conditions, FIG. 1 D
Molecule,Kd (anti-PLA2R Mouse 20 Ab [5]) [s⁻¹],Kd (anti-PLA2R mouse 20 Ab [1]) [nM],Ka (anti-PLA2R mouse 20 Ab [1]) [M⁻¹ s⁻¹],Ka (anti-PLA2R Mouse 20 Ab [4]) [M⁻¹ s⁻¹],also measured
CC[C@H](C)[C@@H]1NC(=O)[C@@H](NC(=O)[C@H](CO)NC(=O)[C@H](CCC(=O)O)NC(=O)[C@H](CO)NC(=O)[C@H](CCC(N)=O)NC(=O)[C@@H](NC(=O)[C@@H](N)C(C)C)[C@@H](C)CC)CSSC[C@@H](C(=O)O)NC(=O)[C@H](CC(N)=O)NC(=O)[C@H](CCC(=O)O)NC(=O)[C@H](CC(C)C)NC(=O)[C@H]([C@@H](C)O)NC(=O)[C@H](CC(C)C)NC(=O)[C@H](C(C)C)NC(=O)[C@H](CO)NC(=O)[C@H](CCCCN)NC(=O)CNC(=O)[C@H](C)NC(=O)[C@H](CCC(N)=O)NC1=O [20mer] (H-VIQSESCIQAGKSVLTLENC-OH; disulfide 7-20),0.000134,~0.1,1.56e+06,1.56e+06,interaction with mouse 20 Ab in slot blot (anti-PLA2R mouse 20 Ab [2]; peptide epitope library): little to no association; association with mouse 20 Ab in ELISA (mouse 20 Ab): little to no association; autoAb binding in substitution scan (in words) ([3]; listed as Peptide platform 2c): successfully interact; also recorded: successfully bound; autoAb binding in substitution scan (in words) ([3]; listed as Peptide platform 3c): successfully interact; also recorded: successfully bound
Head to Tail cyclic: head to tail cyclic 28mer (SEQ ID NO: 74) (KGCFVIQSESLKKSIQAGKSVLTLENCK; head-to-tail cyclisation) [listing 2 of 2 here],–,~0.1,1.55e+06,–,"slot blot staining with anti-PLA2R mouse 20 Ab (anti-PLA2R mouse 20 Ab [2]; non-reducing conditions, FIG. 1 D): stained positive; slot blot intensity of interaction with mouse 20 Ab (anti-PLA2R mouse 20 Ab [2]; peptide epitope library): highest intensity; interaction with mouse 20 Ab in slot blot (anti-PLA2R mouse 20 Ab [2]; peptide epitope library, listed as head to tail 28mer): found to interact; also recorded: displayed association; association with mouse 20 Ab in ELISA (mouse 20 Ab): displayed association; slot blot staining with human anti-PLA2R autoAbs (human anti-PLA2R autoAbs): stained positive"
PIDSESLKK [listing 2 of 2 here],–,~0.1,1.79e+06,–,–
PIQSESLKK [listing 1 of 2 here],7.5e-05,–,–,107000,–
PIQSESLKK [listing 2 of 2 here],–,~0.1,107000,–,–
VIDSESLKK [listing 2 of 2 here],–,~0.1,1.86e+06,–,–
VIQSESLKK [listing 2 of 2 here],–,~0.1,2.27e+06,–,–

# Continued, in another order:
Kd (anti-PLA2R Mouse 20 Ab [5]) [s⁻¹],Molecule,Kd (anti-PLA2R mouse 20 Ab [1]) [nM],Ka (anti-PLA2R mouse 20 Ab [1]) [M⁻¹ s⁻¹],Ka (anti-PLA2R Mouse 20 Ab [4]) [M⁻¹ s⁻¹],also measured
9.4e-05,Head to Tail cyclic: head to tail cyclic 28mer (SEQ ID NO: 74) (KGCFVIQSESLKKSIQAGKSVLTLENCK; head-to-tail cyclisation) [listing 1 of 2 here],–,–,1.55e+06,–
0.000143,PIDSESLKK [listing 1 of 2 here],–,–,1.79e+06,–
5.32e-05,SVLTLENCK [Peptide 2],~0.1,1.43e+06,1.43e+06,–
0.00014,VIDSESLKK [listing 1 of 2 here],–,–,1.86e+06,–
0.000136,VIQSESLKK [listing 1 of 2 here],–,–,2.27e+06,–
